From US8642065B2, “Osteogenic promoting implants and methods of inducing bone growth” (DePuy Synthes Products, LLC, priority 2011, dated 2014)
Where a name gives a salt, the structure may show the parent alone. Read-outs that look alike come from different tables or passages of the source.

How the values were obtained:
[1] = test system: primary human mesenchymal stem cells (MSCs); assay: Osteoinductive (OI) alkaline phosphatase (ALP) assay, dose response, ALP normalised to DNA; type: cell-based
From the text: (§1) Samples from several classes of small molecule compounds including, corticosteroids, glucocorticoids, oxysterols, compounds that impact the HMG coA reductase pathway and compounds that upregulate intracellular cAMP were screened for osteoinductive potential with an alkaline phosphatase (ALP) assay in primary human mesenchymal stem cells (MSCs). Sample compounds were screened over a dose range in a multiwell plate format using DNA to normalize the ALP response as a function of cell number. These dose response curves allowed for the determination of an EC50 to measure relative potency of the osteogenic response between compounds. FIG. 1 is a representative dose response curve for two of the corticosteroid compounds tested, clobetasol propionate and dexamethasone. In addition to the functional analysis, certain identified compounds were run through an in vitro L929 cytotoxicity assay to determine a CC50.

[2] = test system: L929; assay: In vitro L929 cytotoxicity assay (CTG); type: cell-based; details: L929 cells; read-out: Cytotox (CTG) CC50
From the text: as §1

[3] = In vitro L929 cytotoxicity assay (CTG); type: cell-based; details: mouse, L929 cells; read-out: Cytotox (CTG) CC50
From the text: as §1

[4] = test system: MSCs; assay: Relative potency: ALP assay after short exposure times, then basal media to assay completion; type: cell-based, human; details: for EC50: Homo sapiens, MSCs, then basal media
Method: One part of this technology may involve coating an osteoconductive scaffold with an osteoinductive small molecule compound to thereby deliver the compound locally when the scaffold is implanted. Consequently, the optimal time and concentration profile required for the compound to remain at the site in order to influence an osteogenic outcome was determined. Initially, potency was determined by looking at exposure over 6 days. In order to better understand the optimal exposure profile, MSCs were treated over a series of dose ranges for exposure times starting at 1 hour out to 4 days, after which the compound treated media was removed and the cells were allowed to continue to assay completion under basal media conditions. This allowed for the determination of the relative potency of the compounds over short exposure periods and gave an indication of the release requirements that would be necessary to achieve the desired osteogenic outcome.
FIG. 2 is a representative relative potency graph of a corticosteroid, fluticasone propionate, based on the results shown in Table 2.

[5] = Homo sapiens, Mesenchymal stem cells, 144 h, primary human MSCs, exposure over 6 days, read-out: OI Assay (ALP) EC50
[6] = primary human MSCs, exposure over 6 days, read-out: OI Assay (ALP) EC50
[7] = Homo sapiens, Mesenchymal stem cells, 144 h, MSCs, 6 days exposure, read-out: EC50 6 days
[8] = 4 hr exposure, read-out: EC50 4 hr.
[9] = 72 hr exposure, read-out: EC50 72 hr

SMILES | EC50 [1, 5] [nM] | EC50 [1, 6] [nM] | also measured
CC(=O)OCC(=O)[C@@]12N=C(C)O[C@@H]1C[C@H]1[C@@H]3CCC4=CC(=O)C=C[C@]4(C)[C@H]3[C@@H](O)C[C@@]12C [Deflazacort] | 9.85 |  | 
C[C@H]1C[C@H]2[C@@H]3CCC4=CC(=O)C=C[C@]4(C)[C@@]3(F)[C@@H](O)C[C@]2(C)[C@@]1(O)C(=O)CO [Betamethasone] | 1.96 |  | 
COC(=O)[C@H](CCSC)NC(=O)c1ccc(NC[C@@H](N)CS)cc1-c1ccccc1 [FTI-277 trifluoroacetate salt] |  | > 12000 | 
CC(=O)CCCCn1c(=O)c2c(ncn2C)n(C)c1=O [Pentoxifylline (Trental), Pentoxifylline] | > 10000 |  | 
C[C@]12CCC(=O)C=C1CC[C@@H]1[C@@H]2[C@@H](O)C[C@]2(C=O)[C@@H](C(=O)CO)CC[C@@H]12 [Aldosterone 98%, Aldosterone] | 287 |  | 
CCN(CC)CCOc1ccc(C(O)(Cc2ccc(Cl)cc2)c2ccc(C)cc2)cc1 (stereo not drawn) [Triparanol] | > 10000 |  | 
CC1(C)O[C@@H]2C[C@H]3[C@@H]4C[C@H](F)C5=CC(=O)CC[C@]5(C)[C@H]4[C@@H](O)C[C@]3(C)[C@]2(C(=O)CO)O1 [Flurandrenolide] | 1.56 |  | 
O=CN(O)CCCP(=O)(O)O [Fosmidomycin] | > 10000 |  | 
C=C(CC[C@]12O[C@H](C(=O)O)[C@@](O)(C(=O)O)[C@](C(=O)O)(O1)[C@H](OC(=O)/C=C/[C@@H](C)C[C@@H](C)CC)[C@H]2O)[C@@H](OC(C)=O)[C@H](C)Cc1ccccc1 [Zaragozic Acid A] |  | 715 | CC50 [2]: > 30000 nM
CC(=O)OCC(=O)[C@@]1(O)CC[C@H]2[C@@H]3CCC4=CC(=O)CC[C@]4(C)[C@@]3(F)[C@@H](O)C[C@@]21C [Fludrocotisone actetate] |  | 4.12 | 
CCCC(=O)Nc1ncnc2c1ncn2[C@@H]1O[C@@H]2COP(=O)(O)O[C@H]2[C@H]1OC(=O)CCC [dbcAMP] |  | > 10000 | 
CC(C)CCC[C@@H](C)[C@H]1CC[C@H]2[C@@H]3CC=C4C[C@@H](O)CC[C@]4(CO)[C@H]3CC[C@]12C [19-hydroxy-cholesterol] | > 12000 |  | 
C[C@@H]1C[C@H]2[C@@H]3CCC4=CC(=O)C=C[C@]4(C)[C@@]3(F)[C@@H](O)C[C@]2(C)[C@@]1(O)C(=O)CO [Dexamethasone] | 0.95 |  | EC50 [1, 7]: 0.95 nM; CC50 [3]: > 50000 nM; EC50 [4, 8]: 0.787 nM; EC50 [4, 9]: 0.277 nM
CCCC1O[C@@H]2C[C@H]3[C@@H]4CCC5=CC(=O)C=C[C@]5(C)[C@H]4[C@@H](O)C[C@]3(C)[C@]2(C(=O)CO)O1 (stereo partly drawn) [Budesonide] | 0.296 |  | EC50 [1, 7]: 0.296 nM; CC50 [3]: > 30000 nM; EC50 ([4]; 1 hr exposure, read-out: EC50 1 hr.): 47.9 nM; EC50 [4, 8]: 5.47 nM; EC50 ([4]; 24 hr exposure, read-out: EC50 24 hr.): 4.48 nM; EC50 [4, 9]: 0.0533 nM; Max Osteogenic Response ([4]; time range to reach the full response of the ALP assay control (dexamethasone at 10 nM for 6 days)): 72 h
C[C@H](CCCC(C)(C)O)[C@H]1CC[C@H]2[C@@H]3CC=C4C[C@@H](O)CC[C@]4(C)[C@H]3CC[C@]12C [25-hydroxy-cholestero] |  | > 12000 | 
